PubChem BioAssay (NCI)
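1) Cells in 96-well plates. 2) Compound, 48 h, 5 concentrations. 3) Linear interpolation between surrounding doses. 4) Unreached endpoint = highest concentration. TGI is the concentration that stops growth completely.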

Tests used:
Experiment in all cases: growth of human tumour cells (NCI), 48 h
[1] = test system: 786-0 renal
[2] = test system: A498 renal
[3] = test system: A549 NSCLC
[4] = test system: ACHN renal
[5] = test system: CAKI-1 renal
[6] = test system: CCRF-CEM leukemia
[7] = test system: COLO 205 colon
[8] = test system: DLD-1 colon
[9] = test system: DMS 114 small cell lung
[10] = test system: EKVX NSCLC
[11] = test system: HCT-116 colon
[12] = test system: HL-60(TB) leukemia
[13] = test system: HOP-18 NSCLC
[14] = test system: HOP-62 NSCLC
[15] = test system: HOP-92 NSCLC
[16] = test system: HT29 colon
[17] = test system: IGROV1 ovarian
[18] = test system: K-562 leukemia
[19] = test system: KM12 colon
[20] = test system: KM20L2 colon
[21] = test system: LOX IMVI melanoma
[22] = test system: LXFL 529 NSCLC
[23] = test system: M14 melanoma
[24] = test system: M19-MEL melanoma
[25] = test system: MALME-3M melanoma
[26] = test system: MOLT-4 leukemia
[27] = test system: NCI-H226 lung
[28] = test system: NCI-H23 lung
[29] = test system: NCI-H460 lung
[30] = test system: NCI-H522 lung
[31] = test system: OVCAR-3 ovarian
[32] = test system: OVCAR-4 ovarian
[33] = test system: OVCAR-8 ovarian
[34] = test system: RPMI-8226 leukemia
[35] = test system: RXF 393 renal
[36] = test system: RXF-631 renal
[37] = test system: SF-268 CNS
[38] = test system: SF-295 CNS
[39] = test system: SF-539 CNS
[40] = test system: SK-MEL-28 melanoma
[41] = test system: SK-MEL-5 melanoma
[42] = test system: SK-OV-3 ovarian
[43] = test system: SN12C renal
[44] = test system: SNB-19 CNS
[45] = test system: SNB-75 CNS
[46] = test system: SNB-78 CNS
[47] = test system: SR leukemia
[48] = test system: SW-620 colon
[49] = test system: TK-10 renal
[50] = test system: U251 CNS
[51] = test system: UACC-257 melanoma
[52] = test system: UACC-62 melanoma
[53] = test system: UO-31 renal
[54] = test system: XF 498 CNS
[55] = test system: HCC-2998 colon
[56] = test system: HCT-15 colon
[57] = test system: OVCAR-5 ovarian
[58] = test system: SK-MEL-2 melanoma
[59] = test system: DMS 273 small cell lung

## NS(=O)(=O)c1ccc(NC(=O)c2cccn3c(=O)c4ccccc4nc23)cc1
[1]
  TGI: > 100 µM
[2]
  TGI: > 100 µM
[3]
  TGI: > 100 µM
[4]
  TGI: > 100 µM
[5]
  TGI: > 100 µM
[6]
  TGI: > 100 µM
[7]
  TGI: > 100 µM
[8]
  TGI: > 100 µM
[9]
  TGI: > 100 µM
[10]
  TGI: > 100 µM
[11]
  TGI: > 100 µM
[12]
  TGI: > 100 µM
[13]
  TGI: > 100 µM
[14]
  TGI: > 100 µM
[15]
  TGI: > 100 µM
[16]
  TGI: > 100 µM
[17]
  TGI: > 100 µM
[18]
  TGI: > 100 µM
[19]
  TGI: > 100 µM
[20]
  TGI: > 100 µM
[21]
  TGI: > 100 µM
[22]
  TGI: > 100 µM
[23]
  TGI: > 100 µM
[24]
  TGI: > 100 µM
[25]
  TGI: > 100 µM
[26]
  TGI: > 100 µM
[27]
  TGI: > 100 µM
[28]
  TGI: > 100 µM
[29]
  TGI: > 100 µM
[30]
  TGI: > 100 µM
[31]
  TGI: > 100 µM
[32]
  TGI: > 100 µM
[33]
  TGI: > 100 µM
[34]
  TGI: > 100 µM
[35]
  TGI: > 100 µM
[36]
  TGI: > 100 µM
[37]
  TGI: > 100 µM
[38]
  TGI: > 100 µM
[39]
  TGI: > 100 µM
[40]
  TGI: > 100 µM
[41]
  TGI: > 100 µM
[42]
  TGI: > 100 µM
[43]
  TGI: > 100 µM
[44]
  TGI: > 100 µM
[45]
  TGI: > 100 µM
[46]
  TGI: > 100 µM
[47]
  TGI: > 100 µM
[48]
  TGI: > 100 µM
[49]
  TGI: > 100 µM
[50]
  TGI: > 100 µM
[51]
  TGI: > 100 µM
[52]
  TGI: > 100 µM
[53]
  TGI: > 100 µM
[54]
  TGI: > 100 µM

## c1ccc(OCCSCCCCCCCCCCSCCOc2ccccc2)cc1
[1]
  TGI: > 100 µM
[2]
  TGI: > 100 µM
[3]
  TGI: > 100 µM
[4]
  TGI: > 100 µM
[6]
  TGI: > 100 µM
[7]
  TGI: > 100 µM
[9]
  TGI: > 100 µM
[10]
  TGI: > 100 µM
[55]
  TGI: > 100 µM
[56]
  TGI: > 100 µM
[12]
  TGI: > 100 µM
[13]
  TGI: > 100 µM
[14]
  TGI: > 100 µM
[17]
  TGI: > 100 µM
[18]
  TGI: > 100 µM
[19]
  TGI: > 100 µM
[20]
  TGI: > 100 µM
[21]
  TGI: > 100 µM
[22]
  TGI: > 100 µM
[23]
  TGI: > 100 µM
[24]
  TGI: > 100 µM
[25]
  TGI: 90.4 µM
[26]
  TGI: > 100 µM
[27]
  TGI: > 100 µM
[28]
  TGI: > 100 µM
[29]
  TGI: > 100 µM
[30]
  TGI: > 100 µM
[31]
  TGI: > 100 µM
[57]
  TGI: > 100 µM
[33]
  TGI: > 100 µM
[34]
  TGI: > 100 µM
[35]
  TGI: > 100 µM
[36]
  TGI: > 100 µM
[37]
  TGI: > 100 µM
[38]
  TGI: > 100 µM
[39]
  TGI: > 100 µM
[58]
  TGI: > 100 µM
[40]
  TGI: > 100 µM
[41]
  TGI: > 100 µM
[42]
  TGI: > 100 µM
[43]
  TGI: > 100 µM
[44]
  TGI: > 100 µM
[45]
  TGI: > 100 µM
[46]
  TGI: > 100 µM
[48]
  TGI: > 100 µM
[49]
  TGI: > 100 µM
[50]
  TGI: > 100 µM
[51]
  TGI: > 100 µM
[52]
  TGI: > 100 µM
[53]
  TGI: > 100 µM

## CC1=C(C(=O)CC(=O)C(=O)NC2C3CC4CC(C3)CC2C4)Sc2ccccc2N1 (stereo unspecified)
[1]
  TGI: > 100 µM
[2]
  TGI: > 100 µM
[3]
  TGI: > 100 µM
[4]
  TGI: > 100 µM
[5]
  TGI: > 100 µM
[6]
  TGI: > 87.7 µM
[7]
  TGI: > 31.6 µM
[8]
  TGI: > 100 µM
[9]
  TGI: > 31.6 µM
[59]
  TGI: > 100 µM
[10]
  TGI: > 100 µM
[55]
  TGI: > 100 µM
[11]
  TGI: > 100 µM
[56]
  TGI: > 100 µM
[12]
  TGI: > 100 µM
[13]
  TGI: > 100 µM
[14]
  TGI: > 100 µM
[15]
  TGI: > 100 µM
[16]
  TGI: > 100 µM
[17]
  TGI: > 100 µM
[18]
  TGI: > 100 µM
[19]
  TGI: > 100 µM
[20]
  TGI: > 100 µM
[21]
  TGI: > 100 µM
[22]
  TGI: > 100 µM
[23]
  TGI: > 100 µM
[24]
  TGI: > 100 µM
[25]
  TGI: > 100 µM
[28]
  TGI: > 100 µM
[29]
  TGI: > 100 µM
[30]
  TGI: > 100 µM
[31]
  TGI: > 100 µM
[32]
  TGI: > 100 µM
[57]
  TGI: > 100 µM
[33]
  TGI: > 100 µM
[34]
  TGI: > 100 µM
[35]
  TGI: > 100 µM
[37]
  TGI: > 100 µM
[38]
  TGI: > 100 µM
[39]
  TGI: > 100 µM
[58]
  TGI: > 100 µM
[40]
  TGI: > 100 µM
[41]
  TGI: > 100 µM
[42]
  TGI: > 31.6 µM
[43]
  TGI: > 100 µM
[44]
  TGI: > 100 µM
[45]
  TGI: > 100 µM
[46]
  TGI: > 100 µM
[48]
  TGI: > 100 µM
[49]
  TGI: > 100 µM
[50]
  TGI: > 100 µM
[51]
  TGI: > 100 µM
[52]
  TGI: > 100 µM
[53]
  TGI: > 100 µM
[54]
  TGI: > 100 µM

## CC(C)(C)c1cc(CCC(=O)Nc2ccc(Cl)cc2Cl)nc(N)n1
[1]
  TGI: > 100 µM
[3]
  TGI: > 100 µM
[4]
  TGI: > 100 µM
[5]
  TGI: > 100 µM
[6]
  TGI: > 100 µM
[7]
  TGI: > 100 µM
[8]
  TGI: > 100 µM
[9]
  TGI: > 100 µM
[10]
  TGI: > 100 µM
[55]
  TGI: > 100 µM
[11]
  TGI: > 100 µM
[56]
  TGI: > 100 µM
[12]
  TGI: > 100 µM
[13]
  TGI: > 100 µM
[14]
  TGI: > 100 µM
[15]
  TGI: > 100 µM
[16]
  TGI: > 100 µM
[17]
  TGI: > 100 µM
[18]
  TGI: > 100 µM
[19]
  TGI: > 100 µM
[20]
  TGI: > 100 µM
[21]
  TGI: > 100 µM
[22]
  TGI: > 100 µM
[23]
  TGI: > 100 µM
[24]
  TGI: > 100 µM
[25]
  TGI: > 100 µM
[26]
  TGI: > 100 µM
[27]
  TGI: > 100 µM
[28]
  TGI: > 100 µM
[29]
  TGI: > 100 µM
[31]
  TGI: > 100 µM
[32]
  TGI: > 100 µM
[57]
  TGI: > 100 µM
[33]
  TGI: > 100 µM
[35]
  TGI: > 100 µM
[36]
  TGI: > 100 µM
[37]
  TGI: > 100 µM
[38]
  TGI: > 100 µM
[39]
  TGI: > 100 µM
[58]
  TGI: > 100 µM
[40]
  TGI: > 100 µM
[41]
  TGI: > 100 µM
[42]
  TGI: > 100 µM
[43]
  TGI: > 100 µM
[44]
  TGI: > 100 µM
[46]
  TGI: > 100 µM
[47]
  TGI: > 100 µM
[48]
  TGI: > 100 µM
[50]
  TGI: > 100 µM
[51]
  TGI: > 100 µM
[52]
  TGI: > 100 µM
[53]
  TGI: > 100 µM
